Measured values reported in paper PMC4942819 (Scientific Reports, 2016).
Converted amounts (≈) assume the structure as drawn. “And” between values parts separate entries of the source, which are not always exact repeats. Equal entries are not always repeated. Where two headings read alike, the source gives them in different places.

Key:
[1] = system: Mycobacterium tuberculosis H37Rv; experiment: microplate Alamar blue assay (MABA), MIC; assay type: cell-based; details: replicating H37Rv
Mycobacterium avium = experiment: microdilution plate assay, MIC; assay type: cell-based
[2] = system: Mycobacterium tuberculosis Erdman; experiment: microplate Alamar blue assay (MABA), MIC; assay type: cell-based
Vero cells = experiment: cytotoxicity, MTT assay; assay type: cell-based; details: Chlorocebus sabaeus
Procedure: (§1) The compounds were examined for toxicity (IC50) using MTT assay. Briefly, cells (3 ~ 5 × 10^3 cells/well) were seeded in a 96-well plate. After 24 h incubation, the cells were treated with various concentrations of drugs for 24, 48, 72 h, respectively. Columns one and two in the assay plates contained-media +0.1% DMSO for a negative control ,Then, 20 μl of a 5 mg/mL MTT solution was added to each well, and the plates were incubated for an additional 2~4 h at 37 °C. The medium was subsequently discarded, and DMSO 150 μL was added to dissolve the formazan. Oscillate 15 min, the OD 570 was measured using a Spectra MAX M5 microplate spectrophotometer (Molecular Devices, CA, USA), and the IC50 values were calculated.
(§2) Compound MIC was conducted by ShangHai Chempartner Co., Ltd (Shanghai, China) using the microplate Alamar Blue assay (MABA) against Mycobacterium tuberculosis H37Ra (ATCC 25177). Cytotoxicity of tested compounds was assessed on Vero cells.

A549 cells = experiment: cytotoxicity, MTT assay; assay type: cell-based; details: Homo sapiens
Procedure: as §1

J774A.1 cells = experiment: cytotoxicity, MTT assay; assay type: cell-based; details: Mus musculus, J774.A1
Procedure: as §1

M. tuberculosis H37Rv = experiment: MABA checkerboard synergy assay; assay type: cell-based, Mycobacterium tuberculosis; details: for MIC: Mycobacterium tuberculosis, H37RV, 336 h, checkerboard, drug alone, read-out: MIC against H37Rv, MIC alone
[3] = system: M. tuberculosis Erdman in J774A.1 cells; experiment: macrophage assay, intracellular activity; assay type: cell-based, Mycobacterium tuberculosis
Procedure: As described previously, J774A.1 cells were grown in 75-cm2 cell culture flasks in 10% FBS in Dulbecco’s modified Eagle’s medium (DMEM) until confluency. The cells were detached using a cell scraper, and then centrifuged at 200 g for 5 min at room temperature. The cells were incubated at 37 °C under 5% CO2 for 16 h after distributing into 24-well plates containing coverslips. M. tuberculosis Erdman (ATCC 35801) were diluted to a final concentration of 1 × 10^5 to 3 × 10^5 CFU/mL with DMEM after thawing and sonicating from frozen cultures. And 500 ul of the dilution was dispensed to each well of a new 24-well plate. Followed by, J774A.1 cells on coverslips were infected by incubation with M. tuberculosis Erdman at 37 °C for 2 h. Coverslips were then washed with HBSS and transferred to new 24-well plates. The Cultures were treated in triplicate with compounds at 0.02 μM containing DMEM and incubated at 37 °C under 5% CO2 for 16 h. At D 0 (for untreated controls) and after 7 days of incubation, macrophage cells were lysed by addition of 200 μL of 0.25% sodium dodecyl sulfate. The plates were incubated at 37 °C for 10 min, and 200 μL of DMEM was added. The lysate was sampled using a microtube and sonicated for 15 s. Then 1:1, 1:10, 1:100, and 1:1,000 dilutions were plated on 7H11 agar plates and CFU counts determined after 2 to 3 weeks of incubation at 37 °C.

[4] = pharmacokinetic study in SD rats; assay type: in vivo; details: female, rat, 5 mg/kg
Procedure: All animal experiments have been approved by the Institutional Animal Care and Treatment Committee of Sichuan University in China and were carried out in accordance with the approved guidelines. SPF female SD rats weighing 180–220 g were used in the pharmacokinetic study. The rats were fasted overnight before dosing. Every treatment group contain 3 rats. Rats were dosed with SKLB-TB1001 or BTZ043 suspension at 5 mg/kg (i.v. and p.o.). Compounds were dissolved in 5% DMSO/10% Solutol HS15 in saline for intravenous injection and suspended in 0.5% CMC for oral administration. Blood was collected from the jugular vein of each animal at the following times after administration of drugs: 0.083, 0.25, 0.5, 1, 2, 4, 6, 8 and 24 h after a single i.v. dosing; and 0.25, 0.5, 1, 2, 4, 6, 8 and 24 h after a single oral dosing. All blood samples were centrifuged at 3000 r/min for 10 min to obtain serum which was then stored at −20 °C. 150 μL of the serum was added to 500 μL of acetonitrile and the mixture was centrifuged at 13000 r/min for 10 min to remove protein. The supernatant was dried and dissolve in 100 μL of acetonitrile, the solution was centrifuged at 13000 r/min for 10 min. The supernatant was moved to a sample bottle for HPLC analysis. Total area under the concentration time curve (AUC), the elimination half-time (t1/2), the peak concentration (Cmax) and the time to reach peak concentration (Tmax) of samples were determined directly from the experimental data using WinNonlin V6.2.1.

M. tuberculosis Erdman = experiment: in vivo acute M.tb Erdman infection mouse model; set-up: species or system Mycobacterium tuberculosis
[5] = system: Mycobacterium tuberculosis H37Ra (ATCC 25177); experiment: microplate Alamar Blue assay (MABA), MIC, H37Ra; assay type: cell-based
Procedure: as §2

aqueous solubility = assay type: physicochemical
Procedure: (§3) The In vitro ADME/T assays were conducted at WuXi AppTec Co. Ltd.(Shanghai). ClogP was calculated with ChemDraw Ultra 14.0. In the study of bi-directional permeability across MDR1-MDCKII cell monolayer, permeability was correlated with the apparent permeability coefficient Papp (cm/s), which was interpreted as follows: Low permeability( Papp ≤ 1.0×10^-6 cm/s), Moderate permeability(1.0×10^-6 < Papp < 5.5×10^-6 cm/s) or High permeability( Papp ≥ 5.5×10^-6 cm/s). ^aaqueous solubility at room temperature.

plasma protein binding = assay type: in vitro ADME; details: mouse
Procedure: as §3

[6] = system: MDR1-MDCKII cell monolayer; experiment: bi-directional permeability across MDR1-MDCKII cell monolayer; assay type: in vitro ADME; details: dog, MDCK-MDR1
Procedure: as §3

CYP2C19 = CYP2C19 (Homo sapiens, UniProt P33261); experiment: CYP inhibition; assay type: in vitro ADME; details: read-out: CYP inhibition IC50, CYP2C19
Procedure: as §3

CYP2C9 = CYP2C9 (Homo sapiens, UniProt P11712); experiment: CYP inhibition; assay type: in vitro ADME; details: read-out: CYP inhibition IC50, CYP2C9
Procedure: as §3

CYP2D6 = CYP2D6 (Homo sapiens, UniProt P10635); experiment: CYP inhibition; assay type: in vitro ADME; details: read-out: CYP inhibition IC50, CYP2D6
Procedure: as §3

CYP3A4 = CYP3A4 (Homo sapiens, UniProt P08684); experiment: CYP inhibition; assay type: in vitro ADME; details: read-out: CYP inhibition IC50, CYP3A4
Procedure: as §3

[7] = system: Mycobacterium tuberculosis; set-up: method as in PMID 19299584; details: cited from earlier work
MDR-TB clinical isolates = experiment: microbe, parasite or virus in culture; assay type: cell-based; details: Mycobacterium tuberculosis
XDR-TB clinical isolates = experiment: microbe, parasite or virus in culture; assay type: cell-based, Mycobacterium tuberculosis; details: for MIC: Mycobacterium tuberculosis
[8] = Vero, cytotoxicity, read-out: IC50 Vero
[9] = read-out: MIC, MDR-TB strain M3
[10] = read-out: MIC, MDR-TB strain M4
[11] = read-out: MIC, MDR-TB strain M8
[12] = read-out: MIC, MDR-TB strain M18
[13] = read-out: MIC, XDR-TB strain X15
[14] = read-out: MIC, XDR-TB strain X17
[15] = clinical isolate, Table 2 prints no unit, test range 0.0156 to 64 μg/mL

Chain of CYP3A4 (P08684 whole entry): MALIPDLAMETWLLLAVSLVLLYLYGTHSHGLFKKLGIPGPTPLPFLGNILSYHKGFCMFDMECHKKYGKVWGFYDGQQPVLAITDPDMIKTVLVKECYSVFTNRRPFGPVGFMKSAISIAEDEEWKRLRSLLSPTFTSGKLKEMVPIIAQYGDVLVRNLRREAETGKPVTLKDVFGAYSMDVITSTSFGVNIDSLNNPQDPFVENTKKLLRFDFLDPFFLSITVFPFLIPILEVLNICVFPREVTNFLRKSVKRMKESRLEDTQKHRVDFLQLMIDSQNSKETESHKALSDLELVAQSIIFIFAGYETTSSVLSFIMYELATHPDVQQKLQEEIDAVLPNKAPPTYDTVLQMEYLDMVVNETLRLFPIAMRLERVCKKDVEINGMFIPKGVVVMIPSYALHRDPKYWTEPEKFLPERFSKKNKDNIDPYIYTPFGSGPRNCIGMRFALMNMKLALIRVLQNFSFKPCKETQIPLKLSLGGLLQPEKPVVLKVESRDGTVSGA
Chain of CYP2C19 (P33261 whole entry): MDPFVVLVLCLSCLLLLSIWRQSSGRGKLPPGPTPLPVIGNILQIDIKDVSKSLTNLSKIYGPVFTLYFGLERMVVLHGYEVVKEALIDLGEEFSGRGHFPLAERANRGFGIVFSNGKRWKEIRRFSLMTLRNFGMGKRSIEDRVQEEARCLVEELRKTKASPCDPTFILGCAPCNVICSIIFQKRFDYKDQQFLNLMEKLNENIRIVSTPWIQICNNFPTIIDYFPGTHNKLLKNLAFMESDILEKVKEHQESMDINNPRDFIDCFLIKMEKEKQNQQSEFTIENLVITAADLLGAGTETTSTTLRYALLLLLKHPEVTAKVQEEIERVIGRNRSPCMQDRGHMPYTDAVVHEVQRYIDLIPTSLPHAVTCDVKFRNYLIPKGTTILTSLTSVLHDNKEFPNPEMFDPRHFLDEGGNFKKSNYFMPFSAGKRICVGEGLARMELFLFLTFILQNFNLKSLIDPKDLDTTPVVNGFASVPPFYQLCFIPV
Chain of CYP2D6 (P10635 whole entry): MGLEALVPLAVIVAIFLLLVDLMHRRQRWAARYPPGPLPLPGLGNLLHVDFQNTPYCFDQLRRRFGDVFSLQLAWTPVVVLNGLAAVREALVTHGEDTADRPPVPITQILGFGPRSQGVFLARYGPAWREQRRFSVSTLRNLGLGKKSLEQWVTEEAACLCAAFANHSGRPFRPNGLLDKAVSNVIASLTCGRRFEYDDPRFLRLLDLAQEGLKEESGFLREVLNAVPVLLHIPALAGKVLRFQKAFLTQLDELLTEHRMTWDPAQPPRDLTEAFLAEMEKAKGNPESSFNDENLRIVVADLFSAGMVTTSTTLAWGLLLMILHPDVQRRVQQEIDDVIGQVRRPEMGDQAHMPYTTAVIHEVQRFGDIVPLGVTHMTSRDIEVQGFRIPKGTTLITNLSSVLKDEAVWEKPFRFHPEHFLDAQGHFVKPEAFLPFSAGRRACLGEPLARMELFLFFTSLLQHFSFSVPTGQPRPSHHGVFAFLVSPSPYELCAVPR
Chain of CYP2C9 (P11712 whole entry): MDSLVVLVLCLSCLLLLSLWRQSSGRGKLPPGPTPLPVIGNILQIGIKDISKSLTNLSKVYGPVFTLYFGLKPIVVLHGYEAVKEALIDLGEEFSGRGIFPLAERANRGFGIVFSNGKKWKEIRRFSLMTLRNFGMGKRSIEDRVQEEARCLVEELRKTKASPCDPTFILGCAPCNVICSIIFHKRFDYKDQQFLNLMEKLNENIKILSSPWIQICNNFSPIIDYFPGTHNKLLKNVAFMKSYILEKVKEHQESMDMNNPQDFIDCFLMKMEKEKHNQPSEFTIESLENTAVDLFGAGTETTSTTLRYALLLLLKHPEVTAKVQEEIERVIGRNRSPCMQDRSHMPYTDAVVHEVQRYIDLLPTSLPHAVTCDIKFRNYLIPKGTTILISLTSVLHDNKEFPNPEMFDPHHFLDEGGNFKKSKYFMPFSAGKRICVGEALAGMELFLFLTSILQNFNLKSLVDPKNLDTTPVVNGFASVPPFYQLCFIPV

C[C@H]1COC2(CCN(c3nc(=O)c4cc(C(F)(F)F)cc([N+](=O)[O-])c4s3)CC2)O1 [BTZ043]
MIC [1]: 0.02 µg/mL (≈ 0.0464 µM) | MIC (Mycobacterium avium): 32 µg/mL (≈ 74.2 µM) | MIC [2]: < 0.05 µg/mL | IC50 (Vero cells; [8]): > 100 µg/mL | IC50 (Vero cells; cytotoxicity on Vero cells, read-out: IC50): > 20 µM | IC50 (A549 cells): 25 µg/mL (≈ 58 µM) | IC50 (J774A.1 cells): 32 µg/mL (≈ 74.2 µM) | MIC (M. tuberculosis H37Rv): 0.011 µg/mL | MIC against H37Rv, MIC in combo. (M. tuberculosis H37Rv; in combination with RMP): 0.008 µg/mL | Log10 CFU, intracellular Mtb Erdman ([3]; J774A.1 macrophages, 0.02 μM (Fig. 2 legend: 0.02 μg/mL), 7 days): 4.70 | Fold(log) reduction ([3]; decrease of log10 CFU between D7 and treatment group, J774A.1, 0.02 μM (Fig. 2 legend: 0.02 μg/mL)): 2.2 log and 2.15 log | bioavailability ([4]; SD, in vivo): 29.5% | AUC ([4]; SD, in vivo, po): 899 ng·h/mL | Cmax ([4]; SD, in vivo, po): 543 ng/mL | Tmax ([4]; SD, in vivo, po): 15 min | half-life ([4]; plasma, po, SD rats, terminal half-life for elimination): 73.2 min | activity in the acute Mtb Erdman infection mouse model (M. tuberculosis Erdman; 150 mg/kg): not significantly active | Log10 CFU (SD), bacterial burden in mouse lungs (M. tuberculosis Erdman; BALB/c mice, Day-36, 150 mg/kg oral daily from day 10): 6.31 (5.85) | MIC [5]: < 0.1 µM | Solubility (aqueous solubility): <1 | fraction unbound (plasma protein binding): < 0.01 | Permeability (Mean Papp, MDR1) A to B [6]: 9.02 10^-6 cm/s | Permeability (Mean Papp, MDR1) B to A [6]: 7.17 10^-6 cm/s | efflux ratio [6]: 0.79 | IC50 (CYP2C19): > 10 µM | IC50 (CYP2C9): > 10 µM | IC50 (CYP2D6): > 10 µM | IC50 (CYP3A4): > 10 µM | MIC [7]: 0.001 µg/mL (≈ 0.00232 µM)

[H]/N=C(/N)N[C@H]1[C@H](O)[C@@H](O)[C@H](O[C@@H]2O[C@@H](C)[C@](O)(C=O)[C@H]2O[C@@H]2O[C@@H](CO)[C@H](O)[C@@H](O)[C@@H]2NC)[C@@H](N/C(N)=N\[H])[C@@H]1O [SM, streptomycin]
MIC (MDR-TB clinical isolates; [9]): 64 µg/mL (≈ 110 µM) | MIC (MDR-TB clinical isolates; [10]): 8 µg/mL (≈ 13.8 µM) | MIC (MDR-TB clinical isolates; [11]): 64 µg/mL (≈ 110 µM) | MIC (MDR-TB clinical isolates; [12]): 64 µg/mL (≈ 110 µM) | MIC (XDR-TB clinical isolates; [13]): 8 µg/mL (≈ 13.8 µM) | MIC (XDR-TB clinical isolates; [14]): 64 µg/mL (≈ 110 µM)

CC(=O)NC[C@H]1CN(c2ccc(N3CCOCC3)c(F)c2)C(=O)O1 [LZD, Linezolid]
MIC (M. tuberculosis H37Rv): 0.145 µg/mL | MIC against H37Rv, MIC in combo. (M. tuberculosis H37Rv; in combination with TB1001): 0.1 µg/mL

NNC(=O)c1ccncc1 [INH, isoniazid]
MIC [1]: 0.47 µg/mL (≈ 3.43 µM) | MIC (Mycobacterium avium): 16 µg/mL (≈ 117 µM) | IC50 (Vero cells; [8]): > 100 µg/mL | MIC (MDR-TB clinical isolates; [9]): 8 µg/mL (≈ 58.3 µM) | MIC (MDR-TB clinical isolates; [10]): 1 µg/mL (≈ 7.29 µM) | MIC (MDR-TB clinical isolates; [11]): 4 µg/mL (≈ 29.2 µM) | MIC (MDR-TB clinical isolates; [12]): 1 µg/mL (≈ 7.29 µM) | MIC (XDR-TB clinical isolates; [13]): 16 µg/mL (≈ 117 µM) | MIC (XDR-TB clinical isolates; [14]): 1 µg/mL (≈ 7.29 µM) | MIC (M. tuberculosis H37Rv): 0.03 µg/mL | MIC against H37Rv, MIC in combo. (M. tuberculosis H37Rv; in combination with TB1001): 0.01 µg/mL

NC[C@H]1O[C@H](O[C@H]2[C@H](O)[C@@H](O[C@H]3O[C@H](CO)[C@@H](O)[C@H](N)[C@H]3O)[C@H](N)C[C@@H]2N)[C@H](O)[C@@H](O)[C@@H]1O [KM, kanamycin]
MIC, XDR-TB strain X15 (XDR-TB clinical isolates; [15]): 64 µg/mL (≈ 132 µM) | MIC, XDR-TB strain X17 (XDR-TB clinical isolates; [15]): 64 µg/mL (≈ 132 µM)

CC[C@@H](CO)NCCN[C@@H](CC)CO [EMB, ethambutol]
MIC (MDR-TB clinical isolates; [9]): 4 µg/mL (≈ 19.6 µM) | MIC (MDR-TB clinical isolates; [10]): 2 µg/mL (≈ 9.79 µM) | MIC (MDR-TB clinical isolates; [11]): 4 µg/mL (≈ 19.6 µM) | MIC (MDR-TB clinical isolates; [12]): 8 µg/mL (≈ 39.2 µM) | MIC (XDR-TB clinical isolates; [13]): 16 µg/mL (≈ 78.3 µM) | MIC (XDR-TB clinical isolates; [14]): 16 µg/mL (≈ 78.3 µM)
